Reference: PMC6178282, “Comparative cell biological study of in vitro antitumor and antimetastatic activity on melanoma cells of GnRH-III-containing conjugates modified with short-chain fatty acids” (Beilstein Journal of Organic Chemistry, 2018)

Test system: A2058 melanoma cells
Assay: Apoptosis assay, Vitabright-48 thiol staining, NucleoCounter NC-250 image cytometer
Assay type: cell-based, human
Conditions: 10^−5 M, 24 h, NucleoCounter NC-250, average of two parallels ± S.D., control 8.7 ± 0.72
Protocol: The pro-apoptotic effects of conjugates and Dau at 10^−5 M concentration was studied after 24 h incubation by flow cytometry using FITC-annexin V (Sony Biotechnology, Weybridge, UK) and a novel image cytometer (NucleoCounter® NC-250^TM, ChemoMetec A/S, Lillerød, Denmark) using Vitabright-48™ (ChemoMetec A/S, Lillerød, Denmark), a cell permeable dye that reacts with thiol groups to form a fluorescent product. […]
normalizing the viability of conjugate-treated cells with that of the control cells, and these indices of groups pretreated with inhibitors or DMSO were statistically compared.
The apoptotic effect of conjugates and Dau was determined by a FACSCalibur flow cytometer (Becton Dickinson, San Jose, CA, USA) after staining with annexin V-FITC (Sony Biotechnology, Weybridge, UK) and NucleoCounter® NC-250™ cell analyzer (ChemoMetec A/S, Lillerød, Denmark) using Vitabright-48™, a cell-permeable fluorescent dye (ChemoMetec A/S, Lillerød, Denmark). […]
The cells were dissociated by a TrypLE reagent (Thermo Fisher Scientific, Waltham, MA, USA) composed of recombinant enzyme protecting the cell’s surface proteins and it was followed by a centrifugation and a washing step with PBS. […] Before labeling with annexin V-FITC, the cells were measured by a flow cytometer for controlling the autofluorescence of cells in case of each treatment group. […]

COc1cccc2c1C(=O)c1c(O)c3c(c(O)c1C2=O)C[C@@](O)(C(C)=O)C[C@@H]3O[C@H]1C[C@H](N)[C@H](O)[C@H](C)O1 [daunorubicin]
the ratio of apoptotic cells, Vitabright-48™: 30.9 ± 0.68 %
